This is an account of results in patent US4472413A, “9'-Azabicyclo [3.3.1] nonyl benzamide” (Beecham Group p.l.c., priority 1981, dated 1984).

Molecules are shown by their SMILES.

The subject of this experiment is post-synaptic Dopamine (D.A.) receptors. As to the kind of experiment: Inhibition of apomorphine induced climbing in the mouse. It is filed as in vivo. Conditions: po, 4 hour post dosing; apomorphine 1 mg/kg subcutaneous; male CD1 mice. As for the experimental part:
The results in the following table are an illustration of the anti-psychotic activity of the present compounds as shown by Inhibition of Apormorphine Induced Climbing in the Mouse, a standard test.
Inhibition of apomorphine induced climbing in the mouse
The test is based on that described by Protais, P., Constantin, J. and Schwartz J. C. (1976), Psychopharmacology, 50, 1-6.
When mice are given a dose of 1 mg/kg apomorphine and then placed in an enclosed environment, such as an inverted wire cage, they are seen to climb around the walls. This behavioural phenomenon is thought to be a consequence of the stimulation of post-synaptic Dopamine (D.A.) receptors in the nucleus accumbens. Inhibition of apomorphine induced climbing is therefore indicative of post-synaptic D.A. receptor blockage in the accumbens.
Groups of 10 male CD1 mice, weighing 25-30 g were pre-treated orally with either graded doses of the test compound or vehicle, at appropriate time intervals before the subcutaneous administration of a sub-maximal dose of apomorphine (1 mg/kg). Immediately after the apomorphine injection the mice were placed in wire `climbing cages` and each animal was scored for climbing behaviour at 10 and 20 minutes post apomorphine as follows:
Four paws on cage floor=0
The total score was calculated for each group of mice and expressed as a percentage inhibition of climbing. [formula]
ED50's and fiducial limits were calculated according to the method of Litchfield and Wilcoxon, the ED50 being the dose that produced a 50% inhibition of apomorphine-induced climbing.
Take `COc1cc(N)c(Cl)cc1C(=O)N[C@@H]1C[C@H]2CCC[C@@H](C1)N2Cc1ccc(Cl)cc1` [Example 2B]: the “ED50 (dose that produced a 50% inhibition of apomorphine-induced climbing)” value stood at 0.027 mg/kg.

Turning to `COc1cc(N)c(Cl)cc1C(=O)N[C@@H]1C[C@H]2CCC[C@@H](C1)N2Cc1ccc(F)cc1` [Example 1B, 4-Amino-5-chloro-2-methoxy-N-{3'β-[9'-(4-fluorobenzyl)-9'-azabicyclo[3.3.1]-nonyl]}-benzamide], the “ED50 (dose that produced a 50% inhibition of apomorphine-induced climbing)” value came out at 0.008 mg/kg.

As to `COc1cc(N)c(Cl)cc1C(=O)N[C@@H]1C[C@H]2CCC[C@@H](C1)N2Cc1ccc(C)cc1` [Example 3B, 4-Amino-5-chloro-2-methoxy-N-{3'β[9'-(4-methylbenzyl)-9'-azabicyclo[3.3.1]-nonyl]}-benzamide], the “ED50 (dose that produced a 50% inhibition of apomorphine-induced climbing)” value amounted to 0.07 mg/kg.
